Results taken from ChEMBL document CHEMBL1201862, “PubChem BioAssay data set” (2004).
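Compound exposure: 48 hours, 5 concentrations, 96-well plates. At the GI50, growth is halved.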 Activity calls are given as the source filed them. Rule as the data show it: active = GI50 up to about 1.1 µM and inactive = higher.

Experiments:
Assay in all cases: DTP human tumour cell line panel, 48 h
[1] = tested on: UACC-257
[2] = tested on: MDA-MB-231
[3] = tested on: OVCAR-4
[4] = tested on: MOLT-4
[5] = tested on: KM12
[6] = tested on: OVCAR-5
[7] = tested on: BT-549
[8] = tested on: HT-29
[9] = tested on: CAKI-1
[10] = tested on: SN12C
[11] = tested on: MDA-MB-435
[12] = tested on: OVCAR-8
[13] = tested on: A498
[14] = tested on: K562
[15] = tested on: RXF 393
[16] = tested on: NCI-H226
[17] = tested on: EKVX
[18] = tested on: 786-0
[19] = tested on: NCI-H23
[20] = tested on: PC-3
[21] = tested on: U-251
[22] = tested on: M14
[23] = tested on: SK-MEL-28
[24] = tested on: ACHN
[25] = tested on: TK-10
[26] = tested on: SF-539
[27] = tested on: UO-31
[28] = tested on: SK-OV-3
[29] = tested on: SF-268
[30] = tested on: SK-MEL-5
[31] = tested on: MDA-N
[32] = tested on: SNB-19
[33] = tested on: T47D
[34] = tested on: HCT-116
[35] = tested on: SNB-75
[36] = tested on: Hs-578T
[37] = tested on: UACC-62
[38] = tested on: SF-295
[39] = tested on: A549
[40] = tested on: COLO 205
[41] = tested on: SW-620
[42] = tested on: HOP-92
[43] = tested on: NCI-H522
[44] = tested on: SK-MEL-2
[45] = tested on: CCRF-CEM
[46] = tested on: Malme-3M
[47] = tested on: MCF7
[48] = tested on: DU-145
[49] = tested on: NCI/ADR-RES
[50] = tested on: HCT-15
[51] = tested on: NCI-H460
[52] = tested on: LOX IMVI
[53] = tested on: HCC 2998
[54] = tested on: OVCAR-3
[55] = tested on: HOP-62
[56] = tested on: HL-60
[57] = tested on: IGROV-1
[58] = tested on: RPMI-8226

In the case of `COc1ccc(OC)c2c(/C=C/c3ccc(N(C)C)cc3)ccnc12`, the GI50 [1] is reported as 4 µM (inactive), the GI50 [2] is reported as 8.34 µM (inactive) and the GI50 [3] is reported as 4.32 µM (inactive). For the same compound, the GI50 [4] was 6.68 µM (inactive), the GI50 [5] was > 10 µM (inactive) and the GI50 [6] was > 10 µM (inactive). The GI50 [7] was > 10 µM (inactive), the GI50 [8] was 4.11 µM (inactive) and the GI50 [9] was > 10 µM (inactive). For the same compound, the GI50 [10] was 8.05 µM (inactive), the GI50 [11] was 5.21 µM (inactive) and the GI50 [12] was > 10 µM (inactive). The GI50 [13] was > 10 µM (inactive), the GI50 [14] was > 10 µM (inactive) and the GI50 [15] was > 10 µM (inactive). The GI50 [16] was > 10 µM (inactive), the GI50 [17] was > 10 µM (inactive) and the GI50 [18] was 4.01 µM (inactive). The GI50 [19] was > 10 µM (inactive), the GI50 [20] was > 10 µM (inactive) and the GI50 [21] was 5.31 µM (inactive). The GI50 [22] was 7.36 µM (inactive), the GI50 [23] was 3.3 µM (inactive) and the GI50 [24] was 4.68 µM (inactive). The GI50 [25] was 5.58 µM (inactive), the GI50 [26] was 2.77 µM (inactive) and the GI50 [27] was 4.67 µM (inactive). For the same compound, the GI50 [28] was > 10 µM (inactive), the GI50 [29] was > 10 µM (inactive) and the GI50 [30] was > 10 µM (inactive). The GI50 [31] was 5.24 µM (inactive), the GI50 [32] was > 10 µM (inactive) and the GI50 [33] was > 10 µM (inactive). The GI50 [34] was 3.53 µM (inactive), the GI50 [35] was 6.53 µM (inactive) and the GI50 [36] was 8.15 µM (inactive). For the same compound, the GI50 [37] was 3.01 µM (inactive), the GI50 [38] was > 10 µM (inactive) and the GI50 [39] was > 10 µM (inactive). For the same compound, the GI50 [40] was > 10 µM (inactive), the GI50 [41] was > 10 µM (inactive) and the GI50 [42] was 5.87 µM (inactive). The GI50 [43] was 8.02 µM (inactive), the GI50 [44] was > 10 µM (inactive) and the GI50 [45] was 2.48 µM (inactive). For the same compound, the GI50 [46] was 4.51 µM (inactive), the GI50 [47] was 3.52 µM (inactive) and the GI50 [48] was > 10 µM (inactive). The GI50 [49] was > 10 µM (inactive), the GI50 [50] was greater than 10 µM and the GI50 [51] was 9.68 µM (inactive). For the same compound, the GI50 [52] was 2.94 µM (inactive), the GI50 [53] was > 10 µM (inactive) and the GI50 [54] was > 10 µM (inactive). The GI50 [55] was > 10 µM (inactive), the GI50 [56] was 1.91 µM (inactive) and the GI50 [57] was > 10 µM (inactive).

For `COC(=O)C1Cc2c([nH]c3ccccc23)-c2[nH]c3ccccc3c2CC(NC(C)=O)C(=O)NCC(=O)NCC(=O)N1` (configuration not stated), the GI50 [1] was > 100 µM (inactive), the GI50 [2] was > 100 µM (inactive) and the GI50 [4] was > 100 µM (inactive). For the same compound, the GI50 [5] was > 100 µM (inactive), the GI50 [6] was > 100 µM (inactive) and the GI50 [7] was > 100 µM (inactive). The GI50 [8] was > 100 µM (inactive), the GI50 [9] was > 100 µM (inactive) and the GI50 [10] was > 100 µM (inactive). The GI50 [11] was > 100 µM (inactive), the GI50 [12] was > 100 µM (inactive) and the GI50 [13] was > 100 µM (inactive). The GI50 [14] was > 100 µM (inactive), the GI50 [15] was > 100 µM (inactive) and the GI50 [16] was > 100 µM (inactive). For the same compound, the GI50 [17] was > 100 µM (inactive), the GI50 [18] was > 100 µM (inactive) and the GI50 [19] was > 100 µM (inactive). For the same compound, the GI50 [20] was > 100 µM (inactive), the GI50 [21] was > 100 µM (inactive) and the GI50 [22] was > 100 µM (inactive). For the same compound, the GI50 [23] was > 100 µM (inactive), the GI50 [24] was > 100 µM (inactive) and the GI50 [25] was > 100 µM (inactive). For the same compound, the GI50 [26] was > 100 µM (inactive), the GI50 [27] was > 100 µM (inactive) and the GI50 [28] was > 100 µM (inactive). For the same compound, the GI50 [29] was > 100 µM (inactive), the GI50 [30] was > 100 µM (inactive) and the GI50 [31] was > 100 µM (inactive). The GI50 [32] was > 100 µM (inactive), the GI50 [33] was > 100 µM (inactive) and the GI50 [34] was > 100 µM (inactive). The GI50 [35] was > 100 µM (inactive), the GI50 [36] was > 100 µM (inactive) and the GI50 [37] was > 100 µM (inactive). The GI50 [38] was > 100 µM (inactive), the GI50 [39] was > 100 µM (inactive) and the GI50 [40] was > 100 µM (inactive). For the same compound, the GI50 [41] was > 100 µM (inactive), the GI50 [42] was > 100 µM (inactive) and the GI50 [43] was > 100 µM (inactive). For the same compound, the GI50 [44] was > 100 µM (inactive), the GI50 [45] was > 100 µM (inactive) and the GI50 [46] was > 100 µM (inactive). The GI50 [48] was > 100 µM (inactive), the GI50 [49] was > 100 µM (inactive) and the GI50 [50] was greater than 100 µM. The GI50 [51] was > 100 µM (inactive), the GI50 [52] was > 100 µM (inactive) and the GI50 [54] was > 100 µM (inactive). The GI50 [58] was > 100 µM (inactive), the GI50 [55] was > 100 µM (inactive) and the GI50 [56] was > 100 µM (inactive). The GI50 [57] was > 100 µM (inactive).
